Source: patent US7304050B2, “Antibacterial agents” (Pfizer Inc., priority 2003, dated 2007)
≈ marks a conversion by molar mass, not a printed value.

Key:
[1] = test system: E. coli Tol C; assay: Antibacterial assay (Test A), microtitration MIC, Gram negative; assay type: cell-based; settings: Escherichia coli, read-out: Minimum Inhibitory Concentrations E. coli Tol C
Method: (§1) The compounds of the present invention were tested against an assortment of Gram-negative and Gram-positive organisms using standard microtitration techniques (Cohen et. al., Antimicrob., 1985;28:766;Heifetz, et. al., Antimicrob., 1974;6: 124).

[2] = test system: H. influenzae HI3542; assay: as above; assay type: cell-based; settings: Haemophilus influenzae; Gram Negative Bacteria; strain HI3542; read-out: Minimum Inhibitory Concentrations H. influenzae HI3542
Method: as §1

[3] = test system: M. catarrhalis BC3534; assay: as above; assay type: cell-based; settings: Moraxella catarrhalis; Gram Negative Bacteria; strain BC3534; read-out: Minimum Inhibitory Concentrations M. catarrhalis BC3534
Method: as §1

[4] = test system: E. faecalis MGH-2; assay: Antibacterial assay (Test A), microtitration MIC, Gram positive; assay type: cell-based; settings: Enterococcus faecalis, MGH2; Gram Positive Bacteria; strain MGH-2; read-out: Minimum Inhibitory Concentrations E. faecalis MGH-2
Method: as §1

[5] = test system: S pyogenes C203; assay: as above; assay type: cell-based; settings: Gram Positive Bacteria; strain C203; read-out: Minimum Inhibitory Concentrations S pyogenes C203
Method: as §1

[6] = test system: S. aureus UC-76; assay: as above; assay type: cell-based; settings: Staphylococcus aureus, UC76; Gram Positive Bacteria; strain UC-76; read-out: Minimum Inhibitory Concentrations S. aureus UC-76
Method: as §1

[7] = test system: E. coli transcription and translation (TnT); assay type: biochemical

Row | Structure (SMILES) | MIC [1] | MIC [2] | MIC [3] | MIC [4] | MIC [5] | MIC [6] | Inhibitory concentration in E. coli cell-free transcription/translation (TnT) assay [7]
1 | CC(=O)NC[C@H]1CN(c2ccc3c(c2)CCN(c2c(F)cc4c(=O)c(C(=O)O)cn(C5CC5)c4c2F)CC3)C(=O)O1 [Example 12, 7-{7-[5-(Acetylamino-methyl)-2-oxo-oxazolidin-3-yl]-1,2,4,5-tetrahydro-benzo[d]azepin-3-yl}-1-cyclopropyl-6,8-difluoro-4-oxo-1,4-dihydro-quinoline-3-carboxylic Acid] | 4 µg/mL (≈ 7.06 µM) | 0.06 µg/mL (≈ 0.106 µM) | 0.25 µg/mL (≈ 0.441 µM) | 1 µg/mL (≈ 1.77 µM) | 1 µg/mL (≈ 1.77 µM) | 0.25 µg/mL (≈ 0.441 µM) | 9.3 µg/mL
2 | CC(=O)NC[C@H]1CN(c2ccc3c(c2)CCN(c2nc4c(cc2F)c(=O)c(C(=O)O)cn4C2CC2)CC3)C(=O)O1 [Example 14, 7-{7-[5-(Acetylamino-methyl)-2-oxo-oxazolidin-3-yl]-1,2,4,5-tetrahydro-benzo[d]azepin-3-yl}-1-cyclopropyl-6-fluoro-4-oxo-1,4-dihydro-[1,8]naphthyridine-3-carboxylic Acid] | 16 µg/mL (≈ 29.1 µM) | 0.06 µg/mL (≈ 0.109 µM) | 2 µg/mL (≈ 3.64 µM) | 16 µg/mL (≈ 29.1 µM) | 8 µg/mL (≈ 14.6 µM) | 0.5 µg/mL (≈ 0.91 µM) | 15 µg/mL
3 | CC(=O)NC[C@H]1CN(c2ccc3c(c2)CCCN(c2cc4c(cc2F)c(=O)c(C(=O)O)cn4C2CC2)C3)C(=O)O1 [Example 16, 7-{7-[5-(Acetylamino-methyl)-2-oxo-oxazolidin-3-yl]-1,3,4,5-tetrahydro-benzo[c]azepin-2-yl}-1-cyclopropyl-6-fluoro-4-oxo-1,4-dihydro-quinolne-3-carboxylic Acid] | 64 µg/mL (≈ 117 µM) | 0.125 µg/mL (≈ 0.228 µM) | 16 µg/mL (≈ 29.2 µM) | 32 µg/mL (≈ 58.3 µM) | 4 µg/mL (≈ 7.29 µM) | 8 µg/mL (≈ 14.6 µM) | 10 µg/mL
